Where only a bound is given, the exact number is not on record here.

This experiment deals with T1, integrin α4β7 (RPMI-8866 cells) binding with recombinant human VCAM-1 (Homo sapiens, UniProt P13612+P26010).
T1 construct: lymphoma cell strain RPMI-8866 of human B cells, known to express integrin α4β7; endogenous in cells; host or cells: RPMI-8866 (human B-cell lymphoma line)
T1 sequence (P13612 34-1032): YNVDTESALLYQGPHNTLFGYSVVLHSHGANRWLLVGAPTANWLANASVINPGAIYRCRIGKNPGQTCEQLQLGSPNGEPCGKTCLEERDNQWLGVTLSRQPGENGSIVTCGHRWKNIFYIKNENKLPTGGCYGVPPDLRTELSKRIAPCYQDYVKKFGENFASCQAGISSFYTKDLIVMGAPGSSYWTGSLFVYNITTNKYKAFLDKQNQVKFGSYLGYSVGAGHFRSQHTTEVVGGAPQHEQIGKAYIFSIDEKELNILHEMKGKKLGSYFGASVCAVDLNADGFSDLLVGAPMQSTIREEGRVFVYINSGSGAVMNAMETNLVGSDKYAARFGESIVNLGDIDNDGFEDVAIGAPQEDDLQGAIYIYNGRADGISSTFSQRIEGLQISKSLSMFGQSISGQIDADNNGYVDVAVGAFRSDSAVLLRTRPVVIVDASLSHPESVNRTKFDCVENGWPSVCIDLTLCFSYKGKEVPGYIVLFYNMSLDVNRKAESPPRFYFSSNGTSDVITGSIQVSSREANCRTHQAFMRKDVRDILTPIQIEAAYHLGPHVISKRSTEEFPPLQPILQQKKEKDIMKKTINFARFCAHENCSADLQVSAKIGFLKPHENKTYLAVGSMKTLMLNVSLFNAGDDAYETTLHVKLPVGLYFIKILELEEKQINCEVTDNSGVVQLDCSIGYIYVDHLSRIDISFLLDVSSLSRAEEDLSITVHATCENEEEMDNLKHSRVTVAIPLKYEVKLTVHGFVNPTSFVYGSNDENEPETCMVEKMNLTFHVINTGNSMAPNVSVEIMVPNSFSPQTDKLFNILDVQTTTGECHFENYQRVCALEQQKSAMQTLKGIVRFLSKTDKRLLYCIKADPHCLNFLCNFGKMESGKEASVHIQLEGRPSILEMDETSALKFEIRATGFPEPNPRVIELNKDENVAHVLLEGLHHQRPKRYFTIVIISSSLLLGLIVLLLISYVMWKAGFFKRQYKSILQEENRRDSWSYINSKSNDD
T1 sequence (P26010 20-798): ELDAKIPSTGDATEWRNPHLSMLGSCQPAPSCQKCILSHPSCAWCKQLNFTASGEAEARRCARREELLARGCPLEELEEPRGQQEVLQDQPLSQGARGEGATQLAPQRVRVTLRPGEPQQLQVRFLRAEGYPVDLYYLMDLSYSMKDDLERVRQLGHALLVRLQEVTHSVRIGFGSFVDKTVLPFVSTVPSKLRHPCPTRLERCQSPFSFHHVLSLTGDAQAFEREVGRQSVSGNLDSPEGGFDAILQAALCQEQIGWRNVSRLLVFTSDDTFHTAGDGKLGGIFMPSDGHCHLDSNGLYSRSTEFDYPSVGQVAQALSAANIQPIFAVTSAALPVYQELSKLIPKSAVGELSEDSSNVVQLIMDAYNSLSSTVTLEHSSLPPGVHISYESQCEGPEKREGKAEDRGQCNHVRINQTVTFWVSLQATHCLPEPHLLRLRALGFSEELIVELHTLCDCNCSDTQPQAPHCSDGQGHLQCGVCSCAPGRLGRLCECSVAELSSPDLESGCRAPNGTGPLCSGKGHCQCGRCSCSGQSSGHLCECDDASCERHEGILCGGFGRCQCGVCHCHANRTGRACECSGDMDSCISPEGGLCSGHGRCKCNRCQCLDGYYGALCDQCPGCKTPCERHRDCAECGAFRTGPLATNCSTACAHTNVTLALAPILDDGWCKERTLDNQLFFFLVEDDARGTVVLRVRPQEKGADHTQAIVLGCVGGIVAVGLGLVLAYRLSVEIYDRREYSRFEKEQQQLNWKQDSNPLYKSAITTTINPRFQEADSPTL
The experiment is described as follows: VCAM antagonistic activity (VCAM-1/α4β7 binding assay), RPMI-8866 cell adhesion. The format is cell-based. Conditions: recombinant human VCAM-1, 4 mM MnCl2, read-out: VCAM/α 4 β 7 antagonistic activity to integrin (IC50). The method, then:
(Test Example) VCAM Antagonistic Activity (VCAM-1/α4β7 Binding Assay):
The capacity of a test substance antagonistic to the binding of lymphoma cell strain RPMI-8866 of human B cells, known to express integrin α4β7, with VCAM-1 was determined.
100 μl/well of a solution (500 ng/ml ) of recombinant human VCAM-1 (R & D systems) diluted with buffer A (0.1 M NaHCO3, pwH 9.6) was added to a micro titer plate having 96 wells (Nunc Maxisorp). After the incubation at 4° C. overnight, unbound VCAM-1 was removed by once washing with PBS. After completion of the washing, a buffer (buffer B) obtained by diluting Block Ace® (Dainippon Pharmaceutical Co., Ltd.) with PBS to 1/4 concentration was added in an amount of 150 μl/well. After the incubation at room temperature for 1 hour, buffer B was removed and the plate was washed with PBS once.
RPMI-8866 cells were incubated in Dulbecco modified Eagle medium containing 10 μg/ml of Calcein-AM (Wako Pure Chemical Industries, Ltd.) (SIGMA, hereinafter referred to as “DMEM”) at 37° C. for 30 minutes to label them with fluorescence. The cells were again suspended in a binding buffer (DMEM containing 20 mM HEPES, 0.1% BSA) containing 4 mM of MnCl2.
50 μl of a test substance of various concentrations obtained by the dilution with the binding buffer was added to the plate. Immediately thereafter, 50 μl (final volume: 100 μl/well) of the fluorescent RPMI-8866 cells (4×10^6 cells/ml) were added thereto, and they were incubated at room temperature for 30 minutes. After the shaking on a plate shaker (IKA MTS-4) at 800 rpm for 30 seconds, the solution was immediately removed to remove the unbound cells. The fluorescence quantity of the bound cells remaining in the wells was determined with a fluorescent plate reader (Wallac 1420 ARVO multi-label counter) (filter excitation wave length: 485 nml, emission wave length: 535 nm). The fluorescent strength thus obtained is proportional to the number of RPMI-8866 cells bound to VCAM-1 and remaining on the plate. The binding rate of each test material in various concentrations was determined while the fluorescent strength of the test material-free well was determined to be 100%. The concentration IC50 for the 50% binding inhibition was calculated.
For the compound `O=C(O)[C@H](Cc1ccc(OCc2c(Cl)cccc2Cl)cc1)NC(=O)[C@H]1CC[C@H](C(=O)O)CC1` [Example 2, N-(Trans-4-carboxycyclohexane-1-carbonyl)-O-(2,6-dichlorobenzyl)-L-tyrosine], the IC50 was not above 200 nM. On to `O=C(O)[C@H](Cc1ccc(OCc2c(Cl)cccc2Cl)cc1)NC(=O)[C@H]1CC[C@H](C(=O)NNc2ccccc2)CC1` [Example 3, N-(Trans-4-phenylhydrazinocarbonylcyclohexane-1-carbonyl)-O-(2,6-dichlorobenzyl)-L-tyrosine], for which the IC50 was not above 200 nM. With `O=C(O)[C@H](Cc1ccc(OCc2c(Cl)cccc2Cl)cc1)NC(=O)[C@H]1CC[C@H](C(=O)NNc2ccc(Br)cc2)CC1` [Example 4, N-[Trans-4-(4-bromophenylhydrazinocarbonyl)cyclohexane-1-carbonyl]-O-(2,6-dichlorobenzyl)-L-tyrosine] the figure was 200 to 1000 nM; with `O=C(O)[C@H](Cc1ccc(OCc2c(Cl)cccc2Cl)cc1)NC(=O)[C@H]1CC[C@H](C(=O)NCc2ccccc2)CC1` [Example 6], 1000 to 5000 nM; with `COc1ccc(NNC(=O)[C@H]2CC[C@H](C(=O)N[C@@H](Cc3ccc(OCc4c(Cl)cccc4Cl)cc3)C(=O)O)CC2)cc1` [Example 14], not above 200 nM. Regarding `Cc1ccc(NNC(=O)[C@H]2CC[C@H](C(=O)N[C@@H](Cc3ccc(OCc4c(Cl)cccc4Cl)cc3)C(=O)O)CC2)cc1` [Example 34], the IC50 was not above 200 nM.

On to `O=C(O)[C@H](Cc1ccc(OCc2c(Cl)cccc2Cl)cc1)NC(=O)[C@H]1CC[C@H](C(=O)NNc2ccc(OC(F)(F)F)cc2)CC1` [Example 35], for which the IC50 is not above 200 nM.

As to `COc1cccc(NNC(=O)[C@H]2CC[C@H](C(=O)N[C@@H](Cc3ccc(OCc4c(Cl)cccc4Cl)cc3)C(=O)O)CC2)c1` [Example 44], the IC50 was not above 200 nM. With `O=C(Nc1ccc(C[C@H](NC(=O)[C@H]2CC[C@H](C(=O)O)CC2)C(=O)O)cc1)c1snnc1-c1ccccc1` [Example 45, N-(Trans-4-carboxycyclohexane-1-carbonyl)-4-{[(4-phenyl-1,2,3-thiadiazole-5-yl)carbonyl]amino}-L-phenylalanine], the IC50 was not above 200 nM. As for `COc1ccc(NNC(=O)[C@H]2CC[C@H](C(=O)N[C@@H](Cc3ccc(NC(=O)c4snnc4-c4ccccc4)cc3)C(=O)O)CC2)cc1` [Example 46, N-[Trans-4-(4-methoxyphenylhydrazinocarbonyl)cyclohexane-1-carbonyl]-4-{[(4-phenyl-1,2,3-thiadiazole-5-yl)carbonyl]amino}-L-phenyl-alanine], the figure is not above 200 nM.

For `COc1cccc(OC)c1-c1ccc(C[C@H](NC(=O)[C@H]2CC[C@H](C(=O)O)CC2)C(=O)O)cc1` [Example 50, N-(Trans-4-carboxycyclohexane-1-carbonyl)-4-(2,6-dimethoxyphenyl)-L-phenylalanine], the IC50 is not above 200 nM. Take `COc1ccc(NNC(=O)[C@H]2CC[C@H](C(=O)N[C@@H](Cc3ccc(-c4c(OC)cccc4OC)cc3)C(=O)O)CC2)cc1` [Example 51, N-[Trans-4-(4-methoxyphenylhydrazinocarbonyl)cyclohexane-1-carbonyl]-4-(2,6-dimethoxyphenyl)-L-phenylalanine]: the IC50 was not above 200 nM.
